From publication PMC9200803, “Design, synthesis, and biological evaluation of tetrahydroquinolinones and tetrahydroquinolines with anticancer activity” (Scientific Reports, 2022)

How the values were obtained:
HCT-116 cells = assay: MTT cell viability assay, HCT-116; format: cell-based, human; conditions: 72 h; for IC50: MTT, IC50 ± SD; for cytotoxicity on tested cell lines: HCT-116, MCF-7, A-549, concentrations up to 50 µM
Protocol: (§1) To evaluate the effects of the newly synthesized tetrahydroquinolin-2(1H)-one derivatives on cell viability, we treated human colon cancer cells HCT-116, human breast cancer cells MCF-7, and human non-small cell lung cancer cells A-549 with different concentrations of the compounds for 72 h. After incubation, the MTT (3-(4,5-dimethylthiazol-2-yl)-2,5-diphenyltetrazolium bromide) assay was performed and the cytotoxic potency of compounds (expressed in IC50) on the cells was determined in comparison to control cells treated with 1% of dimethyl sulfoxide (DMSO) (Table 1). […] We also compared the activity of 20d and 19b to the reference control drug Cisplatin, which is widely used in chemotherapy.
(§2) A-549 (CCL-185) and MCF-7 ([…]) cells were cultured in RPMI-1640 medium, while HCT-116 (CVCL-427), (hMLH1)-deficient (MMR^–) and hMLH1-proficient (MMR^+) RKO cells were cultured in McCoy’s 5A medium. The culture media were supplemented with 10% fetal bovine serum, 2 mM L-glutamine, and antibiotics (penicillin 62.6 µg/ml and streptomycin 40 µg/ml). Cultivation of cell lines was carried out at 37 °C under a humidified atmosphere containing 5% CO2, and the cultures were routinely screened for Mycoplasma contamination. A-549, MCF-7, and HCT-116 cells were obtained from American Type Culture Collection (ATCC), while RKO colon carcinoma cells were a kind gift of Dr Timothy Kinsella (Brown University, USA).
(§3) The viability of cells was determined in response to the newly synthesized compounds using the MTT (Sigma-Aldrich) assay. Briefly, cells were seeded into 96-well plates and allowed to attach overnight. Then, cells were exposed to various concentrations of compounds for 24, 48 or 72 h. Negative controls were treated with the same amount of DMSO solvent (1%). After treatment, the MTT solution (0.4 mg/ml) was added to each well and allowed to react with cells for 2–3 h at 37 °C. Next, the medium was removed, the formazan product formed was dissolved in 100 μl of DMSO, and the absorbance was determined at 540 nm using an ASYS UVM340 microplate reader (Biochrom Ltd.). The IC50 value, which represents the concentration of the compound required to inhibit cell growth by 50% compared to vehicle, was calculated using GraphPad Prism 8 software based on the curves plotting survival against dose averaged from at least three independent experiments.

HEK293 cells = assay: MTT cell viability assay, HEK293; format: cell-based, human
MCF-7 cells = assay: MTT cell viability assay, MCF-7; format: cell-based, human; conditions: IC50 ± SD
Protocol: as §1, §2, §3

A-549 cells = assay: MTT cell viability assay, A-549; format: cell-based, human; conditions: MTT, 72 h, IC50 ± SD
Protocol: as §1, §2, §3

[1] = Homo sapiens, HEK293, IC50 ± SD

| Compound | IC50 (HCT-116 cells) | IC50 (HEK293 cells; IC50 ± SD) | IC50 (MCF-7 cells; 72 h) | IC50 (A-549 cells) | cytotoxicity on tested cell lines (HCT-116 cells) | IC50 (HCT-116 cells; Homo sapiens, HCT-116, 72 h) | IC50 (HEK293 cells; [1]) | IC50 (MCF-7 cells; Homo sapiens, MCF7, 72 h) | IC50 (A-549 cells; Homo sapiens, A549) | melting point |
| --- | --- | --- | --- | --- | --- | --- | --- | --- | --- | --- |
| N.N.[Cl][Pt][Cl] [Cisplatin, reference compound] | 24.9 ± 1.14 µM | 28.4 ± 1.97 µM | 33.8 ± 1.56 µM | 29.01 ± 0.12 µM | – | – | – | – | – | – |
| O=c1cc(-c2ccccc2)c2c([nH]1)CCCC2 [Compound 9, 4-phenyl-5,6,7,8-tetrahydro-1H-quinolin-2-one] | – | – | – | – | no cytotoxicity | > 50 µM | > 50 µM | > 50 µM | > 50 µM | – |
| OC1CCCc2c(-c3ccccc3)cc(Cl)nc21 (stereo not shown) [Compound 16, 2-chloro-4-phenyl-5,6,7,8-tetrahydroquinolin-8-ol] | – | – | – | – | no cytotoxicity | > 50 µM | > 50 µM | > 50 µM | > 50 µM | 88 to 90 °C |
| COc1cc(-c2ccccc2)c2c(n1)C(O)CCC2 (stereo not shown) [Compound 17, 2-methoxy-4-phenyl-5,6,7,8-tetrahydroquinolin-8-ol] | – | – | – | – | no cytotoxicity | > 50 µM | > 50 µM | > 50 µM | > 50 µM | 61 to 63 °C |
| O=C(Nc1ccccc1)OC1CCCc2c(-c3ccccc3)cc(Cl)nc21 (stereo not shown) [Compound 18a, (2-chloro-4-phenyl-5,6,7,8-tetrahydroquinolin-8-yl) N-phenylcarbamate] | – | – | – | – | – | 39.8 ± 2.62 µM | > 50 µM | > 50 µM | 27.2 ± 1.53 µM | 148 to 150 °C |
| O=C(Nc1ccc([N+](=O)[O-])cc1)OC1CCCc2c(-c3ccccc3)cc(Cl)nc21 (stereo not shown) [Compound 18b, (2-chloro-4-phenyl-5,6,7,8-tetrahydroquinolin-8-yl) N-(4-nitrophenyl)carbamate] | – | – | – | – | no cytotoxicity | > 50 µM | > 50 µM | > 50 µM | > 50 µM | – |
| O=C(Nc1ccc(F)cc1)OC1CCCc2c(-c3ccccc3)cc(Cl)nc21 (stereo not shown) [Compound 18c, (2-chloro-4-phenyl-5,6,7,8-tetrahydroquinolin-8-yl) N-(4-fluorophenyl)carbamate] | – | – | – | – | – | 18.9 ± 1.26 µM | > 50 µM | > 50 µM | 23.8 ± 4.02 µM | 113 to 115 °C |
| O=C(Nc1cccc(F)c1)OC1CCCc2c(-c3ccccc3)cc(Cl)nc21 (stereo not shown) [Compound 18d, (2-chloro-4-phenyl-5,6,7,8-tetrahydroquinolin-8-yl) N-(3-fluorophenyl)carbamate] | – | – | – | – | no cytotoxicity | > 50 µM | > 50 µM | > 50 µM | > 50 µM | – |
| O=C(Nc1ccc(Cl)cc1)OC1CCCc2c(-c3ccccc3)cc(Cl)nc21 (stereo not shown) [Compound 18e, (2-chloro-4-phenyl-5,6,7,8-tetrahydroquinolin-8-yl) N-(4-chlorophenyl)carbamate] | – | – | – | – | – | > 50 µM | > 50 µM | > 50 µM | 45.3 ± 4.2 µM | – |
| COc1cc(-c2ccccc2)c2c(n1)C(OC(=O)Nc1ccccc1)CCC2 (stereo not shown) [Compound 19a, (2-methoxy-4-phenyl-5,6,7,8-tetrahydroquinolin-8-yl) N-phenylcarbamate] | – | – | – | – | – | 26.2 ± 1.69 µM | > 50 µM | > 50 µM | > 50 µM | – |
| COc1cc(-c2ccccc2)c2c(n1)C(OC(=O)Nc1ccc(F)cc1)CCC2 (stereo not shown) [Compound 19c, (2-methoxy-4-phenyl-5,6,7,8-tetrahydroquinolin-8-yl) N-(4-fluorophenyl)carbamate] | 13 ± 2.68 µM | – | – | – | – | ~13 µM | > 50 µM | > 50 µM | 28.4 ± 0.56 µM | 125 to 127 °C |
| COc1cc(-c2ccccc2)c2c(n1)C(OC(=O)Nc1cccc(F)c1)CCC2 (stereo not shown) [Compound 19d, (2-methoxy-4-phenyl-5,6,7,8-tetrahydroquinolin-8-yl) N-(3-fluorophenyl)carbamate] | – | – | – | – | – | 31.6 ± 0.58 µM | > 50 µM | > 50 µM | 41.1 ± 0.93 µM | – |
| COc1cc(-c2ccccc2)c2c(n1)C(OC(=O)Nc1ccc(Cl)cc1)CCC2 (stereo not shown) [Compound 19e, (2-methoxy-4-phenyl-5,6,7,8-tetrahydroquinolin-8-yl) N-(4-chlorophenyl)carbamate] | 13.9 ± 1.3 µM | – | – | – | – | ~13 µM | > 50 µM | > 50 µM | > 50 µM | 144 to 146 °C |
| O=C(Nc1ccccc1)OC1CCCc2c(-c3ccccc3)cc(=O)[nH]c21 (stereo not shown) [Compound 20a, (2-oxo-4-phenyl-5,6,7,8-tetrahydroquinolin-8-yl) N-phenylcarbamate] | 13.1 ± 1.55 µM | – | – | – | – | ~13 µM | > 50 µM | > 50 µM | 21.8 ± 0.22 µM | 144 to 146 °C |
| O=C(Nc1ccc([N+](=O)[O-])cc1)OC1CCCc2c(-c3ccccc3)cc(=O)[nH]c21 (stereo not shown) [Compound 20b, (2-oxo-4-phenyl-5,6,7,8-tetrahydroquinolin-8-yl) N-(4-nitrophenyl)carbamate] | – | – | – | – | – | > 50 µM | > 50 µM | > 50 µM | > 50 µM | 225 to 227 °C |
| O=C(Nc1ccc(F)cc1)OC1CCCc2c(-c3ccccc3)cc(=O)[nH]c21 (stereo not shown) [Compound 20c, (2-oxo-4-phenyl-5,6,7,8-tetrahydroquinolin-8-yl) N-(4-fluorophenyl)carbamate] | – | – | – | – | – | 18.4 ± 2.04 µM | > 50 µM | > 50 µM | 23.8 ± 4.02 µM | – |
| O=C(Nc1ccc(Cl)cc1)OC1CCCc2c(-c3ccccc3)cc(=O)[nH]c21 (stereo not shown) [Compound 20e, (2-oxo-4-phenyl-5,6,7,8-tetrahydroquinolin-8-yl) N-(4-chlorophenyl)carbamate] | – | – | – | – | no cytotoxicity | > 50 µM | > 50 µM | > 50 µM | > 50 µM | – |
| O=C1CCCc2c(-c3ccccc3)cc(Cl)nc21 [Compound 21, 2-chloro-4-phenyl-6,7-dihydro-5H-quinolin-8-one] | – | – | – | – | no cytotoxicity | > 50 µM | > 50 µM | > 50 µM | > 50 µM | 135 to 137 °C |
| COc1cc(-c2ccccc2)c2c(n1)C(=O)CCC2 [Compound 22, 2-methoxy-4-phenyl-6,7-dihydro-5H-quinolin-8-one] | – | – | – | – | no cytotoxicity | > 50 µM | > 50 µM | > 50 µM | > 50 µM | 127 to 129 °C |
| O=C1CCCc2c(-c3ccccc3)cc(=O)[nH]c21 [Compound 23, 4-phenyl-1,5,6,7-tetrahydroquinoline-2,8-dione] | – | – | – | – | no cytotoxicity | > 50 µM | > 50 µM | > 50 µM | > 50 µM | 182 to 184 °C |
